Source: paper PMC6512958 (Hypertension (Dallas, Tex. : 1979), 2019)

Key:
[1] = cited from earlier work
rodents = details: ANG1-7/MasR, rodents / diet-induced obesity; cited from earlier work
human MasR = assay: cAMP production in HEK293 cells overexpressing human MasR; type: cell-based; details: 10^-7, 10^-6 and 10^-5 M, 10 min; RIA; vs no treatment; Figure 2B
normal canines = type: in vivo, male mongrel dogs; details: IV infusion 8.66 pmol/kg/min
[2] = tested on: diabetic mice and rats overexpressing the mouse Ren2-gene; details: long-term treatment, cited from earlier work
human pGC-A = assay: cGMP production in HEK293 cells overexpressing human pGC-A; type: cell-based; details: 10^-10, 10^-8 and 10^-6 M, 10 min; RIA; vs no treatment; Figure 2A
humans with stable HF = details: chronic subcutaneous BNP, human HF; cited from earlier work
HTN = details: cited from earlier work

For Angiotensin 1-7 [ANG1–7], the half-life time [1] is listed as “extremely short”, the in vivo degradation [1] is listed as “rapid in vivo degradation” and the “obesity-induced HTN and brown adipocyte differentiation” value (rodents) is listed as “protection from obesity-induced HTN in rodents and induction of brown adipocyte differentiation”. For the same substance, the “cAMP production (MasR activation)” value (human MasR) was “significantly increasing concentrations of cAMP production”, the “reduction in MAP compared with BNP and NPA7” value (normal canines; Figure 4A) was “modest” and the “mean arterial pressure (MAP), during drug infusion” value (normal canines; n=5 (ANG1-7), Figure 4A) was “did not reduce MAP”. For the same substance, the “cardiomyocyte hypertrophy, apoptosis and fibrosis” value ([2]; diabetic mice and rats overexpressing the mouse Ren2-gene) was “prevented” and the “cardiac function in diabetic mice” value [2] was “significantly improved”.
In the case of B-type natriuretic peptide [BNP], the “cGMP production (pGC-A activation)” value (human pGC-A) is given as “significantly increasing concentrations of cGMP production”, the “mean arterial pressure (MAP)” value (normal canines; BNP n=5, NPA7 n=6, Figure 4A) is given as “reduced MAP significantly” and the “symptoms and myocardial structure and function” value (humans with stable HF) is given as “improved symptoms and myocardial structure and function”.
In the case of sacubitril/valsartan, the “efficacy in HTN” value (HTN) is given as “demonstrated efficacy in HTN”.
